Each compound was assayed against T1, GST-JAK2(808-1132) (Homo sapiens, UniProt O60674) (assay: EPK JAK/TYK-kinase family profiling assay (Caliper mobility shift), JAK2). Conditions: Caliper mobility shift assay of Example 187, 20 μM ATP, read-out: IC50 with Test in present Example.
T1 construct: GST-JAK2(808-1132) is purchased from Invitrogen; purchased Invitrogen (Carlsbad, USA) #4288
Type: biochemical
From the text: All four kinases of the JAK/TYK-kinase family are used as purified recombinant GST-fusion proteins, containing the active kinase domains. GST-JAK1(866-1154), GST-JAK3(811-1124), and GST-TYK2(888-1187) are expressed and purified by affinity chromatography. GST-JAK2(808-1132) is purchased from Invitrogen (Carlsbad, USA, #4288).
The kinase assays are based on the Caliper mobility shift assay using the LabChip 3000 systems. This technology is similar to capillary electrophoresis and uses charge driven separation of substrate and product in a microfluidic chip.
All kinase reactions are performed in 384 well microtiter plates in a total reaction volume of 18 μl. The assay plates are prepared with 0.1 μl per well of test compound in the appropriate test concentration, as described under the section “preparation of compound dilutions”. The reactions are started by combining 9 μl of substrate mix (consisting of peptide and ATP) with 9 μl of kinase dilution. The reactions are incubated for 60 minutes at 30° C. and stopped by adding 70 μl of stop buffer (100 mM Hepes, 5% DMSO, 0.1% Coating reagent, 10 mM EDTA, 0.015% Brij 35).
Fluorescently labeled synthetic peptides are used as substrates in all reactions. […] Specific assay conditions are described in Table 1:
The terminated reactions are transferred to a Caliper LabChip 3000 reader (Caliper Life Sciences, Mountain View, Calif., USA) and the turnover of each reaction is measured by determining the substrate/product ratio.
Test compounds are dissolved in DMSO (10 mM) and transferred into 1.4 mL flat bottom or V-shaped Matrix tubes carrying a unique 2D matrix chip by individual compound hubs. The numbers of these chips are distinctively linked to the individual compound identification numbers. The stock solutions are stored at −20° C. if not used immediately. For the test procedure the vials are defrosted and identified by a scanner whereby a working sheet is generated that guides the subsequent working steps.
Compound dilutions are made in 96 well plates. This format enabled the assay of maximally 40 individual test compounds at 8 concentrations (single points) including 4 reference compounds. The dilution protocol includes the production of pre-dilution plates, master plates and assay plates:
Pre-dilution plates: 96 polypropylene well plates are used as pre-dilution plates. A total of 4 pre-dilution plates are prepared including 10 test compounds each on the plate positions A1-A10, one standard compound at A11 and one DMSO control at A12. All dilution steps are done on a Hamilton STAR robot (Hamilton, Co., Reno, Nev., USA).
Master plates: 100 μL of individual compound dilutions including standard compound and controls of the 4 “pre-dilution plates” are transferred into a 384 “master plate” including the following concentrations 1,820, […], 182, 54.6, 18.2, 5.46, 1.82 and 0.546 μM, respectively in 90% of DMSO.
Assay plates: Identical assay plates are then prepared by pipetting 100 nL each of compound dilutions of the master plates into 384-well “assay plates”. In the following the compounds are mixed with 9 μL of assays components plus 9 μL enzyme corresponding to a 1:181 dilution steps enabling the final concentration of 10, 3.0, 1.0, 0.3, 0.1, 0.03, 0.01 and 0.003 μM, respectively. The preparation of the master plates are handled by the Matrix PlateMate Plus robot (Thermo Fisher Scientific, Handforth, Cheshire, United Kingdom) and replication of assay plates by the HummingBird robot (Genomic Solutions, Inc., Ann Arbor, Mich., USA).

T1 sequence (O60674 808-1132): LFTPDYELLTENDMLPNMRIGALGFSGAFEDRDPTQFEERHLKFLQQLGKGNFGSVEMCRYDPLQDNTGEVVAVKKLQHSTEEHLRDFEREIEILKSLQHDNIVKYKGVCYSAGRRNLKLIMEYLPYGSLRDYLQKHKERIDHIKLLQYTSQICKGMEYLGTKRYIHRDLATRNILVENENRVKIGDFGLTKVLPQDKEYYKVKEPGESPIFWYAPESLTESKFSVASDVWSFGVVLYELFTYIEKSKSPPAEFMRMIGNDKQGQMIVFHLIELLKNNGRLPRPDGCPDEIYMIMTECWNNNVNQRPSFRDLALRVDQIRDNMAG

Row | IC50 [nM] | SMILES
1 | 18 | C[S+]([O-])c1ccc(Nc2nc3cccc(-c4ccc(CC(=O)N5CCOCC5)cc4)c3o2)cc1 (stereo not shown) [Example 135, 2-{4-[2-(4-Methanesulfinyl-phenylamino)-benzooxazol-7-yl]-phenyl}-1-morpholin-4-yl-ethanone]
2 | 160 | COc1cc(Nc2nc3cccc(-c4ccc(CN5CCN(C)CC5)cc4)c3o2)cc(OC)c1OC [Example 137]
3 | 6.2 | Cc1cc(Nc2nc3cccc(-c4ccc(CC(=O)N5CCOCC5)cc4)c3o2)ccc1C(=O)N(C)C [Example 70, 2,N,N-Trimethyl-4-{7-[4-(2-morpholin-4-yl-2-oxo-ethyl)-phenyl]-benzooxazol-2-ylamino}-benzamide]
4 | 88 | Cc1cc(-c2cccc3nc(Nc4ccc(C(=O)N5CCCC5)c(C)c4)oc23)ccc1CN1CCOCC1 [Example 110, {2-Methyl-4-[7-(3-methyl-4-morpholin-4-ylmethyl-phenyl)-benzooxazol-2-ylamino]-phenyl}-pyrrolidin-1-yl-methanone]
5 | 39 | COCCN1CCN(c2ccc(Nc3nc4cccc(-c5ccc(S(C)(=O)=O)cc5)c4o3)cc2C)CC1 [Example 115, [7-(4-Methanesulfonyl-phenyl)-benzooxazol-2-yl]-{4-[4-(2-methoxy-ethyl)-piperazin-1-yl]-3-methyl-phenyl}-amine]
6 | 6.5 | CN1CCN(c2ccc(Nc3nc4cccc(-c5ccc(C(=O)N6CCOCC6)c(F)c5)c4o3)cc2)CC1 [Example 75, (2-Fluoro-4-{2-[4-(4-methyl-piperazin-1-yl)-phenylamino]-benzooxazol-7-yl}-phenyl)-morpholin-4-yl-methanone]
7 | 11.7 | Cc1cc(Nc2nc3cccc(-c4ccc(C(C)(C)C(=O)N5CCOCC5)cc4)c3o2)ccc1N1CCN(C2CC2)CC1 [Example 157, 2-(4-{2-[4-(4-Cyclopropyl-piperazin-1-yl)-3-methyl-phenylamino]-benzooxazol-7-yl}-phenyl)-2-methyl-1-morpholin-4-yl-propan-1-one]
8 | 19.5 | CCN1CCN(Cc2ccc(Nc3nc4cccc(-c5ccc(C(=O)N6CCOCC6)c(F)c5)c4o3)cc2C)CC1 [Example 119, (4-{2-[4-(4-Ethyl-piperazin-1-ylmethyl)-3-methyl-phenylamino]-benzooxazol-7-yl}-2-fluoro-phenyl)-morpholin-4-yl-methanone]
9 | 13 | Cc1cc(Nc2nc3cccc(-c4ccc(C(=O)N5CCOCC5)cc4F)c3o2)ccc1C(=O)N(C)C [Example 76, 4-{7-[2-Fluoro-4-(morpholine-4-carbonyl)-phenyl]-benzooxazol-2-ylamino}-2,N,N-trimethyl-benzamide]
10 | 8.25 | Cc1cc(Nc2nc3cccc(-c4cc(F)c(CN5CCS(=O)(=O)CC5)c(F)c4)c3o2)ccc1C(=O)N(C)C [Example 65, 4-{7-[4-(1,1-Dioxo-thiomorpholin-4-ylmethyl)-3,5-difluoro-phenyl]-benzooxazol-2-ylamino}-2,N,N-trimethyl-benzamide]
11 | 28 | COCCNC(=O)c1ccc(Nc2nc3cccc(-c4ccc(CC(=O)N5CCOCC5)cc4)c3o2)cc1 [Example 147, N-(2-Methoxy-ethyl)-4-{7-[4-(2-morpholin-4-yl-2-oxo-ethyl)-phenyl]-benzooxazol-2-ylamino}-benzamide]
12 | 17 | Cc1cc(Nc2nc3cccc(-c4ccc(C[S+](C)[O-])cc4)c3o2)ccc1C(=O)N(C)C (stereo not shown) [Example 81, 4-[7-(4-Methanesulfinylmethyl-phenyl)-benzooxazol-2-ylamino]-2,N,N-trimethyl-benzamide]
13 | 725 | CNS(=O)(=O)c1ccc(-c2cccc3nc(Nc4ccc(C)c(OC)c4)oc23)cc1 [Example 144, 4-[2-(3-Methoxy-4-methyl-phenylamino)-benzooxazol-7-yl]-methyl-benzenesulfonamide]
14 | 14 | CC(=O)NC1Cc2ccc(Nc3nc4cccc(-c5ccc(CN6CCS(=O)(=O)CC6)cc5)c4o3)cc2C1 (stereo not shown) [Example 133, N-(5-{7-[4-(1,1-Dioxo-1lambda*6*-thiomorpholin-4-ylmethyl)-phenyl]-benzooxazol-2-ylamino}-indan-2-yl)-acetamide]
15 | 14 | Cc1cc(Nc2nc3cccc(-c4ccc(CN5CCOCC5)c(F)c4)c3o2)ccc1C(=O)N1CCCC1 [Example 67, {4-[7-(3-Fluoro-4-morpholin-4-ylmethyl-phenyl)-benzooxazol-2-ylamino]-2-methyl-phenyl}-pyrrolidin-1-yl-methanone]
16 | 6.2 | Cc1cc(Nc2nc3cccc(-c4cc(F)c(CN5CCS(=O)(=O)CC5)c(F)c4)c3o2)ccc1C(=O)N(C)CCN(C)C [Example 159, N-(2-Dimethylamino-ethyl)-4-{7-[4-(1,1-dioxo-1lambda*6*-thiomorpholin-4-ylmethyl)-3,5-difluoro-phenyl]-benzooxazol-2-ylamino}-2,N-dimethyl-benzamide]
17 | 19.5 | Cc1cc(Nc2nc3cccc(-c4ccc(C(=O)N5CCOCC5)c(F)c4)c3o2)ccc1CN1CCOCC1 [Example 131, {2-Fluoro-4-[2-(3-methyl-4-morpholin-4-ylmethyl-phenylamino)-benzooxazol-7-yl]-phenyl}-morpholin-4-yl-methanone]
18 | 17 | Cc1cc(Nc2nc3cccc(-c4ccc(CC(=O)N5CCOCC5)cc4)c3o2)ccc1C(=O)N1CCN(C)CC1 [Example 72, 2-(4-{2-[3-Methyl-4-(4-methyl-piperazine-1-carbonyl)-phenylamino]-benzooxazol-7-yl}-phenyl)-1-morpholin-4-yl-ethanone]
19 | 4.3 | Cc1cc(Nc2nc3cccc(-c4cc(F)c(CN5CCS(=O)(=O)CC5)c(F)c4)c3o2)ccc1N1CCN(CCN(C)C)CC1 [Example 107, {4-[4-(2-Dimethylamino-ethyl)-piperazin-1-yl]-3-methyl-phenyl}-{7-[4-(1,1-dioxo-1lambda*6*-thiomorpholin-4-ylmethyl)-3,5-difluoro-phenyl]-benzooxazol-2-yl}-amine]
20 | 14 | Cc1cc(Nc2nc3cccc(-c4ccc(C(C)(C)C(=O)N5CCOCC5)cc4)c3o2)ccc1CN1CCOCC1 [Example 167, 2-Methyl-2-{4-[2-(3-methyl-4-morpholin-4-ylmethyl-phenylamino)-benzooxazol-7-yl]-phenyl}-1-morpholin-4-yl-propan-1-one]
21 | 19 | Cc1cc(Nc2nc3cccc(-c4cc(F)c(CN5CCOCC5)c(F)c4)c3o2)ccc1C(=O)N(C)C [Example 68, 4-[7-(3,5-Difluoro-4-morpholin-4-ylmethyl-phenyl)-benzooxazol-2-ylamino]-2,N,N-trimethyl-benzamide]
22 | 27.5 | CN1CCN(c2ccc(Nc3nc4cccc(-c5ccc(C(C)(C)C(=O)N6CCOCC6)cc5)c4o3)cc2)CC1 [Example 151, 2-Methyl-2-(4-{2-[4-(4-methyl-piperazin-1-yl)-phenylamino]-benzooxazol-7-yl}-phenyl)-1-morpholin-4-yl-propan-1-one]
23 | 29.5 | CCN(CC)C(=O)c1ccc(Nc2nc3cccc(-c4cc(F)c(CN5CCN(C(C)=O)CC5)c(F)c4)c3o2)cc1C [Example 117, 4-{7-[4-(4-Acetyl-piperazin-1-ylmethyl)-3,5-difluoro-phenyl]-benzooxazol-2-ylamino}-N,N-diethyl-2-methyl-benzamide]
24 | 14 | COc1cc(Nc2nc3cccc(-c4ccc(CN5CCOCC5)cc4)c3o2)cc(OC)c1OC [Example 138, [7-(4-Morpholin-4-ylmethyl-phenyl)-benzooxazol-2-yl]-(3,4,5-trimethoxy-phenyl)-amine]
25 | 14 | CCN(CC)C(=O)c1ccc(Nc2nc3cccc(-c4cc(F)c(CN5CCOCC5)c(F)c4)c3o2)cc1C [Example 103, 4-[7-(3,5-Difluoro-4-morpholin-4-ylmethyl-phenyl)-benzooxazol-2-ylamino]-N,N-diethyl-2-methyl-benzamide]

Source: US8629168B2, “Benzoxazoles and oxazolopyridines being useful as janus kinases inhibitors” (priority 2006, dated 2014)
